Data: article PMC6508677, “Identification of druggable small molecule antagonists of the Plasmodium falciparum hexose transporter PfHT and assessment of ligand access to the glucose permeation pathway via FLAG-mediated protein engineering” (PLoS ONE, 2019)
Several values for one entry are separate records, joined by “and”; a condition that tells them apart may be missing. Equal values may be shown once. Read-outs that look alike come from different tables or passages of the source.

Columns and labels:
PfHT [1] = target: T1, PfHT (Plasmodium falciparum, UniProt Q7KWJ5); experiment: Kinetic analysis of 2-DG uptake (Km) in HEK293 cells overexpressing PfHT
T1 sequence (Q7KWJ5 1-504): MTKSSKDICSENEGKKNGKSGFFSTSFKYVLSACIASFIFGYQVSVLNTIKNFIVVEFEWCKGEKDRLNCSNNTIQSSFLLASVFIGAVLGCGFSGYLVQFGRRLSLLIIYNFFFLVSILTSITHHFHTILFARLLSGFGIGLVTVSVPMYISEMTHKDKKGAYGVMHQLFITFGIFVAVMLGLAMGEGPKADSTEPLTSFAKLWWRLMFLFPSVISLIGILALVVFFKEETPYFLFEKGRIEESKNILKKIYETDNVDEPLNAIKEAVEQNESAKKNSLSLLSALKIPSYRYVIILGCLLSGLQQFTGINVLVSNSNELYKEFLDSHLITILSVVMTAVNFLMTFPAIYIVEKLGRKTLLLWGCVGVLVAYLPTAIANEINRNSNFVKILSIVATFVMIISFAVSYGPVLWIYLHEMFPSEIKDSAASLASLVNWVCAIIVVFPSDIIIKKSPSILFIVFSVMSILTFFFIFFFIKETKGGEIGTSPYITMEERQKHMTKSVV
Procedure: (§3) Glucose uptake by P. falciparum was performed essentially as described [23]. P. falciparum strain 3D7 was cultured in 100 mm tissue culture dishes (Techno Plastic Products) in a 2% suspension of human erythrocytes and RPMI 1640 medium until reaching > 7.5% parasitemia. Cells were pelleted via centrifugation and resuspended in RPMI 1640 medium. To determine the uptake of radiolabeled glucose into the parasite, parasites were isolated from infected erythrocytes by permeablization with saponin (0.05 w/v), followed by centrifugation, aspiration of supernatant and washing of the pellet 3X with saline solution (135 mM NaCl, 2 mM KCl, 25 mM HEPES, 0.2 mM glucose and 1 mM MgCl2; pH 7.1) to remove cellular debris. WU-1 or DMSO vehicle were added to 100 μl parasites (resuspended in saline) 5 min prior to the addition of 100 μl [^14C]2-DOG (0.2- μCi/ml final concentration). 2-DG uptake was stopped after 2 min by layering the entire reaction over 300 μl of an oil mixture (5:4 mix of dibutyl phthalate / dinonyl phthalate) in Eppendorf tubes and centrifuged at 15,850 × g for 2 mins. The ratio of the estimated intracellular concentration of radiolabel relative to the extracellular concentration were calculated as described [23]. Uptake of radiolabeled hexose into HEK293 cells was measured in glucose-free HBSS as described previously [24]. Briefly, cells were plated at 400,000 cells/well overnight at 37°C in 24-well plates pre-treated with PEI. After 30-min incubation at 37°C in glucose-free HBSS in the presence of vehicle or increasing concentrations of compound, 2-DG uptake was measured in glucose-free HBSS for 4 min at 37°C. Cultures were washed in ice-cold 1X PBS and lysed in 0.1% Triton X-100 in 1X PBS. Radiolabeled hexose uptake was determined by liquid scintillation counting (Ultima Gold, Thermo Fisher) and normalized to total protein per well. Uptake data are plotted as percent uptake relative to vehicle-treated cells. Kinetic analyses were performed using the indicated concentrations of substrate and WU-1, with quenching of uptake after 1 min incubation. […] Data were fit by least squares nonlinear regression analysis using GraphPad Prism 6.0 software.

FTPfHT [2] = target: T2, FTPfHT (Plasmodium falciparum, UniProt Q7KWJ5); experiment: Kinetic analysis of 2-DG uptake (Km) in HEK293 cells overexpressing FTPfHT; type: cell-based; design: the 38–40 kDa band represents full length PfHT; expressed in transfected cells; host or cells: HEK293-FLIP (HEK293); conditions: average of Expt 1-3
T2 sequence (Q7KWJ5 1-504): T1 sequence (Q7KWJ5 1-504)
Procedure: (§4) Glucose uptake by P. falciparum was performed essentially as described [23]. P. falciparum strain 3D7 was cultured in 100 mm tissue culture dishes (Techno Plastic Products) in a 2% suspension of human erythrocytes and RPMI 1640 medium until reaching > 7.5% parasitemia. Cells were pelleted via centrifugation and resuspended in RPMI 1640 medium. To determine the uptake of radiolabeled glucose into the parasite, parasites were isolated from infected erythrocytes by permeablization with saponin (0.05 w/v), followed by centrifugation, aspiration of supernatant and washing of the pellet 3X with saline solution (135 mM NaCl, 2 mM KCl, 25 mM HEPES, 0.2 mM glucose and 1 mM MgCl2; pH 7.1) to remove cellular debris. […] The ratio of the estimated intracellular concentration of radiolabel relative to the extracellular concentration were calculated as described [23]. Uptake of radiolabeled hexose into HEK293 cells was measured in glucose-free HBSS as described previously [24]. […] After 30-min incubation at 37°C in glucose-free HBSS in the presence of vehicle or increasing concentrations of compound, 2-DG uptake was measured in glucose-free HBSS for 4 min at 37°C. […] Radiolabeled hexose uptake was determined by liquid scintillation counting (Ultima Gold, Thermo Fisher) and normalized to total protein per well. […]

GLUT1 Y293I = tested on: GLUT1 Y293I; design: method as in PMID 8157690; conditions: GLUT1 Y293I vs wild type; cited from earlier work
FTPfHT [3] = target: T2, FTPfHT; experiment: 2-DG uptake by HEK293 cells overexpressing FLAG-tagged PfHT (FTPfHT); type: cell-based; design: the 38–40 kDa band represents full length PfHT; expressed in transfected cells; host or cells: HEK293-FLIP (HEK293); key to 2-DG Uptake AVE: % uptake relative to vehicle-treated cells
Text: (§1) Generation of HEK293 cells overexpressing PfHT and human GLUTs 1–4 were described elsewhere. Briefly, HEK293 cells were transfected with pcDNA3.1 FLII12Pglu-7006 (Addgene), containing the fluorescence resonance energy transfer (FRET) glucose sensor (HEK293-FLIP) and PfHT, human GLUT1 (hGLUT1), hGLUT2, hGLUT3, hGLUT4, hGLUT5 or hGLUT8 using Optifect (Life Technologies) according to manufacturer’s specifications. To increase retention of GLUT8 at the plasma membrane, the dileucine sorting signal E^7E^8XXXLL was modified to R^7R^8XXXLL as described in [17]. Stable transfectants were selected for G418 and hygromycin resistance to select for FRET sensor and hexose transporter, respectively. HEK293-FLIP cells were also used to generate cells stably transfected with FLAG-tagged PfHT (FTPfHT). FLAG tag ([…]) followed by a triple glycine linker and a tobacco etch virus (TEV) protease site (ENLYFQS) followed by a triple glycine linker was added to the N-terminus of PfHT via PCR [18] using Phusion Hot Start II High-Fidelity DNA Polymerase (Fisher Scientific). Single clones were selected by comparing their abilities to transport glucose as assayed via FRET and radiolabeled hexose uptake. In all cell lines, except for HEK293 cells overexpressing hGLUT1 and hGLUT5, native hGLUT1 was knocked down using shRNA as described elsewhere. Transcript levels of the individual GLUTs expressed in each cell line are as described in [13, 15] and in S1 Fig.
(§2) Glucose uptake by P. falciparum was performed essentially as described. P. falciparum strain 3D7 was cultured in 100 mm tissue culture dishes (Techno Plastic Products) in a 2% suspension of human erythrocytes and RPMI 1640 medium until reaching > 7.5% parasitemia. Cells were pelleted via centrifugation and resuspended in RPMI 1640 medium. To determine the uptake of radiolabeled glucose into the parasite, parasites were isolated from infected erythrocytes by permeablization with saponin (0.05 w/v), followed by centrifugation, aspiration of supernatant and washing of the pellet 3X with saline solution (135 mM NaCl, 2 mM KCl, 25 mM HEPES, 0.2 mM glucose and 1 mM MgCl2; pH 7.1) to remove cellular debris. WU-1 or DMSO vehicle were added to 100 μl parasites (resuspended in saline) 5 min prior to the addition of 100 μl [^14C]2-DOG (0.2- μCi/ml final concentration). 2-DG uptake was stopped after 2 min by layering the entire reaction over 300 μl of an oil mixture (5:4 mix of dibutyl phthalate / dinonyl phthalate) in Eppendorf tubes and centrifuged at 15,850 × g for 2 mins. The ratio of the estimated intracellular concentration of radiolabel relative to the extracellular concentration were calculated as described. Uptake of radiolabeled hexose into HEK293 cells was measured in glucose-free HBSS as described previously. Briefly, cells were plated at 400,000 cells/well overnight at 37°C in 24-well plates pre-treated with PEI. After 30-min incubation at 37°C in glucose-free HBSS in the presence of vehicle or increasing concentrations of compound, 2-DG uptake was measured in glucose-free HBSS for 4 min at 37°C. Cultures were washed in ice-cold 1X PBS and lysed in 0.1% Triton X-100 in 1X PBS. Radiolabeled hexose uptake was determined by liquid scintillation counting (Ultima Gold, Thermo Fisher) and normalized to total protein per well. Uptake data are plotted as percent uptake relative to vehicle-treated cells. Kinetic analyses were performed using the indicated concentrations of substrate and WU-1, with quenching of uptake after 1 min incubation. Incubation times had been previously determined as being in the linear range of time-dependent radiolabeled hexose uptake (2 min for 2-DG uptake into freed parasites; 2 and 4 min for D-Frc and 2-DG uptake HEK cell lines, respectively). Data were fit by least squares nonlinear regression analysis using GraphPad Prism 6.0 software.

PfHT [4] = target: T1, PfHT; experiment: 2-DG uptake by HEK293 cells overexpressing PfHT; type: cell-based; design: expressed in transfected cells; host or cells: HEK293 (HEK293-FLIP, native hGLUT1 knocked down by shRNA)
Text: as §1, §2

blood stage parasites = tested on: blood stage parasites; design: method as in PMID 26248369; conditions: read-out: IC50 against blood stage parasites; cited from earlier work
[5] = substrate: O=CC[C@@H](O)[C@H](O)[C@H](O)CO; experiment: cells, lysate or membranes; type: cell-based, Plasmodium falciparum; conditions: other: 2-DG uptake (1 min), FTPfHT; pH 7.1; 37.0 °C
Procedure: as §4

[6] = substrate: O=CC[C@@H](O)[C@H](O)[C@H](O)CO; experiment: cells, lysate or membranes; conditions: other: 2-DG uptake (1 min), PfHT; pH 7.1; 37.0 °C
Procedure: as §3

For `O=C(CO)[C@@H](O)[C@H](O)[C@H](O)CO` [D-frc], the “Km (1/v) D-frc uptake: AVE IC50” value (PfHT [1]; average of Expt 1-3) was 1830 µM, the “Km (1/v) D-frc uptake: IC50” value (PfHT [1]; single experiments Expt 1-3) was 2500 µM and 1600 µM and 1380 µM and the “Km (1/v) D-frc uptake: AVE IC50” value (FTPfHT [2]) was 2070 µM.

In the case of `CC1OC[C@H]2O[C@H](O)[C@H](O)[C@@H](O)[C@@H]2O1` (stereo partly drawn) [Ethylideneglucose, 4,6-O-ethylidene-α-D-glucose, reference compound], the “decrease of Ki by Y293I mutation” value (GLUT1 Y293I) is listed as over 2 fold, the IC50 (FTPfHT [3]; FTPfHT, 2-DG Uptake, single experiments Expt 1-3, read-out: IC50) is listed as 1490 µM and 1830 µM and 1170 µM and the “2-DG Uptake AVE” value (FTPfHT [3]; FTPfHT, concentration 0.001 mM, Expt 1-3) is listed as 100.00. For the same molecule, the “2-DG Uptake AVE” value (FTPfHT [3]; FTPfHT, concentration 0.0390625 mM) was 96.35, the “2-DG Uptake AVE” value (FTPfHT [3]; FTPfHT, concentration 0.078125 mM) was 89.02 and 99.10 and 95.29 and the “2-DG Uptake AVE” value (FTPfHT [3]; FTPfHT, concentration 0.15625 mM) was 83.11 and 96.24 and 85.58. The “2-DG Uptake AVE” value (FTPfHT [3]; FTPfHT, concentration 0.3125 mM) was 83.21 and 82.95 and 84.08, the “2-DG Uptake AVE” value (FTPfHT [3]; FTPfHT, concentration 0.63 mM) was 73.60 and 68.20 and 76.54 and the “2-DG Uptake AVE” value (FTPfHT [3]; FTPfHT, concentration 1.25 mM) was 62.34 and 52.24 and 56.96. The “2-DG Uptake AVE” value (FTPfHT [3]; FTPfHT, concentration 2.5 mM) was 40.70 and 31.77 and 32.91, the “2-DG Uptake AVE” value (FTPfHT [3]; FTPfHT, concentration 5 mM) was 18.95 and 15.78 and 18.06 and the “2-DG Uptake AVE” value (FTPfHT [3]; FTPfHT, concentration 10 mM) was 13.87 and 9.18 and 10.65. For the same molecule, the “2-DG Uptake AVE” value (FTPfHT [3]; FTPfHT, concentration 20 mM) was 7.63 and 6.14 and 7.00, the “2-DG Uptake AVE” value (FTPfHT [3]; FTPfHT, concentration 40 mM) was 5.44 and 4.46 and 5.15 and the “2-DG Uptake AVE” value (FTPfHT [3]; FTPfHT, concentration 80 mM) was 5.14 and 3.60. It also gave an IC50 (FTPfHT [3]; read-out: IC50 for inhibition of 2-DG uptake, HEK293 cells overexpressing FTPfHT) of 1500 ± 200 µM, an IC50 (PfHT [4]; PfHT, 2-DG Uptake, average of Expt 1-3, read-out: AVE IC50) of 5790 µM and an IC50 (PfHT [4]; PfHT, 2-DG Uptake, single experiments Expt 1-3, read-out: IC50) of 5990 µM. The “2-DG Uptake AVE” value (PfHT [4]; PfHT, concentration 0.001 mM, Expt 1-3) was 100.00, the “2-DG Uptake AVE” value (PfHT [4]; PfHT, concentration 0.3125 mM) was 94.37 and 96.75 and 86.10 and the “2-DG Uptake AVE” value (PfHT [4]; PfHT, concentration 0.625 mM) was 89.78 and 84.91 and 77.97. The “2-DG Uptake AVE” value (PfHT [4]; PfHT, concentration 1.25 mM) was 82.38 and 77.88 and 79.22, the “2-DG Uptake AVE” value (PfHT [4]; PfHT, concentration 2.5 mM) was 70.45 and 76.21 and 65.14 and the “2-DG Uptake AVE” value (PfHT [4]; PfHT, concentration 5 mM) was 56.80 and 57.04 and 54.41. The “2-DG Uptake AVE” value (PfHT [4]; PfHT, concentration 10 mM) was 38.62 and 35.32 and 38.49, the “2-DG Uptake AVE” value (PfHT [4]; PfHT, concentration 20 mM) was 25.77 and 23.49 and 21.21 and the “2-DG Uptake AVE” value (PfHT [4]; PfHT, concentration 40 mM) was 17.24 and 14.68 and 18.76. For the same molecule, the “2-DG Uptake AVE” value (PfHT [4]; PfHT, concentration 80 mM) was 11.01 and 10.15 and 11.14, the “2-DG Uptake AVE” value (PfHT [4]; PfHT, concentration 160 mM) was 6.85 and 7.66 and 8.85 and the “2-DG Uptake AVE” value (PfHT [4]; PfHT, concentration 320 mM) was 4.36 and 4.29 and 5.25. It also gave an IC50 (PfHT [4]; read-out: IC50 for inhibition of 2-DG uptake, HEK293 cells overexpressing PfHT) of 5900 ± 150 µM.

For `Cc1cccc(C)c1OCC(=O)N[C@@H](Cc1ccccc1)[C@@H](O)C[C@H](Cc1ccccc1)NC(=O)[C@H](C(C)C)N1CCCNC1=O` [lopinavir], the IC50 (blood stage parasites) is given as 16 µM.

B1: FTPfHT (Plasmodium falciparum 3D7) (protein)
chain: T1 sequence (Q7KWJ5 1-504)
notes: the 38–40 kDa band represents full length PfHT; expressed in transfected cells; host or cells: HEK293-FLIP (HEK293)
Work on B1 yielded a Km [5] of 2100 ± 500 µM.

B2: PfHT (Plasmodium falciparum 3D7) (protein)
chain: T1 sequence (Q7KWJ5 1-504)
B2 gave a Km [6] of 1800 ± 300 µM.
